Results published in patent US9808528B2, “Protein-polymer-drug conjugates and methods of using same” (priority 2014, dated 2017).
Where a SMILES comes first, the peptide text is derived from it. [ ]: non-standard residue; d: D form. The star is where a group is joined. Dolaproine = CO[C@@H]([C@@H]1CCCN1)[C@@H](C)C(=O)O; Dil = CC[C@H](C)[C@H](NC)[C@@H](CC(=O)O)OC; NMe2Val = CC(C)[C@@H](C(=O)*)N(C)C; NH(3-hydroxypropyl) = OCCCN*

Experiments:
BT474 = experiment: Cell viability assay (Cell Titer-Glo); assay type: cell-based, human; settings: 72 h incubation; AF-HPA as toxin equivalents
Procedure: (§1) PBRM-polymer-drug conjugates were evaluated for their antiproliferation properties in tumor cell lines in vitro using Cell Titer-Glo (Promega Corp). Cells were plated in black walled 96-well plate and allowed to adhere overnight at 37° C. in a humidified atmosphere of 5% CO2. SKBR3, BT474, NCI-N87 cells (HER2 expressing cells), MCF7 cells (HER2 low expressing levels cells) and JIMT1 cells (HER2 medium expression level cells) were plated at a density of 5,000 cells per well. The next day the medium was replaced with 50 μL fresh medium and 50 μL of 2× stocks of PBRM-polymer-drug conjugate, drug polymer conjugate or drug were added to appropriate wells, mixed and incubated for 72 h. Cell Titer-Glo reagent was added to the wells at room temperature and the luminescent signal was measured after 10 min using a SpectraMax M5 plate reader (Molecular Devices). Dose response curves were generated using SoftMax Pro software. IC50 values were determined from four-parameter curve fitting.

N87 = experiment: Cell viability assay (Cell Titer-Glo); assay type: cell-based; settings: 72 h incubation; AF-HPA as toxin equivalents
Procedure: as §1

MCF7 = experiment: Cell viability assay (Cell Titer-Glo); assay type: cell-based; settings: 72 h incubation; HER2 low expressing cells; AF-HPA as toxin equivalents
Procedure: as §1

JIMT1 = experiment: Cell viability assay (Cell Titer-Glo); assay type: cell-based; settings: 72 h incubation; HER2 medium expression level cells; AF-HPA as toxin equivalents
Procedure: as §1

HL-60 = experiment: Cell viability assay (Cell Titer-Glo); assay type: cell-based; settings: for IC50: CD33 expressing cells, 72 h or 6 days incubation
Procedure: Dose response curves were generated using SoftMax Pro software. IC50 values were determined from four-parameter curve fitting.
CD33 expressing cells HL-60 were passed at a density of 5,000 cells per well and treated with PBRM-polymer-drug conjugate on the same day. After 72 h or 6 days incubation, the cells were analyzed using the same procedure described above.

[1] = Mouse tissue distribution after administration of PBRM-polymer-drug conjugates
Procedure: To determine the concentration of the free drug in the sample, the acidified sample was treated with acetonitrile. The free drug was extracted from the supernatant and analyzed by LC-MS/MS.
At 48 hours post administration, the mice were sacrificed and the blood was collected by terminal cardiac.

HL-60 cells = experiment: Tumor growth response, HL-60 xenograft; assay type: in vivo, mice
Procedure: Female NCr nu/nu mice were inoculated subcutaneously with HL-60 cells (n=10 for each group). Test compounds or vehicle were dosed IV as a single dose on day 1. Tumor size was measured at the times indicated in FIGS. 1 to 6 using digital calipers. Tumor volume was calculated and was used to determine the delay in tumor growth. Mice were sacrificed when tumors reached a size of 800 to 1500 mm^3. Tumor volumes are reported as the mean±SEM (“standard error of mean”) for each group.
Female NCr nu/nu mice were inoculated subcutaneously with HL-60 cells (n=10 for each group). Test compounds or vehicle were dosed IV as a single dose on day 1. Tumor size was measured at the times indicated in FIG. 3 using digital calipers. Tumor volume was calculated and was used to determine the delay in tumor growth. Mice were sacrificed when tumors reached a size of 2000 mm^3. Tumor volumes are reported as the mean±SEM for each group.

NCI-N87 cells = experiment: Tumor growth response, NCI-N87 xenograft; assay type: in vivo, mice
Procedure: (§2) Female CB-17 SCID mice were inoculated subcutaneously with BT474 tumor fragments (n=10 for each group) or JIMT-1 cells (n=10 for each group) or NCI-N87 cells (n=10 for each group). […] Test compounds or vehicle were dosed IV as a single dose on day 1. Tumor size was measured at the times indicated in FIGS. 1 to 6 using digital calipers. Tumor volume was calculated and was used to determine the delay in tumor growth. Mice were sacrificed when tumors reached a size of 800 to 1500 mm^3. Tumor volumes are reported as the mean±SEM (“standard error of mean”) for each group.

BT474 tumor fragments = experiment: Tumor growth response, BT474 xenograft; assay type: in vivo, mice
Procedure: as §2

SKBR3 = experiment: Cell viability assay (Cell Titer-Glo); assay type: cell-based; settings: 72 h incubation; AF-HPA as toxin equivalents
Procedure: as §1

hErbB2 = hErbB2 (Homo sapiens, UniProt P04626); experiment: Ligand binding studies by BIAcore surface plasmon resonance (SPR); settings: 25° C.; immobilized hErbB2; BioRad ProteOn XPR36
Procedure: The kinetic binding of the PBRM-polymer-drug conjugate to an immobilized receptor is determined by BIAcore SPR. The binding constants for the PBRM in the PBRM-polymer-drug conjugate and PBRM alone can be determined using standard BIAcore procedures.
The kinetic binding of the PBRM-polymer-drug conjugate to an immobilized receptor was determined by BIAcore SPR.

JIMT-1 cells = experiment: Tumor growth response, JIMT-1 xenograft; assay type: in vivo, mice
Procedure: as §2

With `CC[C@H](C)[C@@H]([C@@H](CC(=O)N1CCC[C@H]1[C@H](OC)[C@@H](C)C(=O)N[C@@H](Cc1ccccc1)C(=O)NCCCO)OC)N(C)C(=O)[C@@H](NC(=O)[C@H](C(C)C)N(C)C)C(C)C` [AF-HPA, Auristatin F-hydroxypropylamide] (NMe2Val-V[Dil][Dolaproine]F-{NH(3-hydroxypropyl)}) the IC50 (BT474) was 1.01 nM, the IC50 (N87) was 0.42 nM and the IC50 (MCF7) was 4.4 nM. The IC50 (JIMT1) was 0.86 nM, the IC50 (HL-60) was 4.8 nM and the “metabolism of unconjugated AF-HPA in plasma (in words)” value ([1]; in plasma) was “not converted to AF”. The “metabolism of released unconjugated AF-HPA in tissue (in words)” value ([1]; in tissue) was “further metabolized to AF”.

With “Lintuzumab-((EG2-MI (2%)-(10 kDa PHF-BA (30%)-(AF-HPA-Ala (9%)) [Example 8]” the “antiproliferative activity compared to control conjugate (in words)” value (HL-60; CD33 expressing cell line HL-60) was “higher antiproliferative activity”, the IC50 (HL-60) was 0.77 nM and the “regressions, FIG. 3” value (HL-60 cells; 20 mg/kg single IV dose) was 100%. For the same compound, the “tumor free survival on day 44, FIG. 3” value (HL-60 cells; 20 mg/kg single IV dose, day 44) was 70% and the “tumor volume response (in words), FIG. 3” value (HL-60 cells; single IV dose day 1, 20 mg/kg) was “reduction of tumor volume”.

For “Rituximab-((EG2-MI (2%)-(10 kDa PHF-BA (28%)-(AF-HPA-Ala (9%)) [Example 16]”, the IC50 (BT474) was 3.04 nM, the IC50 (N87) was 5.23 nM and the IC50 (MCF7) was 27.9 nM. The IC50 (JIMT1) was 1.88 nM and the “tumor growth response (in words), FIG. 6” value (NCI-N87 cells; single IV dose, Example 14 at […], Example 16 at 3 mg/kg) was “no effect on tumor growth”.

“Rituximab-((EG2-MI (3%)-(10 kDa PHF-BA (30%)-(AF-HPA-Ala (8%)) [Example 9]” showed an IC50 (HL-60) of 6.74 nM.

For “Trastuzumab-((EG2-MI (1%))-(10 kDa PHF-GA (29%)-(AF-HPA-Ala (6%)) [Example 13]”, the “regressions, FIG. 1” value (BT474 tumor fragments; 5 mg/kg single IV dose) was 100%, the “tumor free survival, FIG. 1” value (BT474 tumor fragments; 5 mg/kg single IV dose) was 80% and the “tumor volume response (in words), FIG. 1” value (BT474 tumor fragments; single IV dose day 1, conjugates […] and 5 mg/kg, trastuzumab 10 mg/kg) was “reduction of tumor volume”.

“Trastuzumab-((EG2-MI (2%)-(10 kDa PHF-BA (28%)-(AF-HPA-Ala (9%) [Example 14]” showed an IC50 (BT474) of 0.07 nM, an IC50 (SKBR3) of 0.02 nM and an IC50 (N87) of 0.11 nM. For the same compound, the IC50 (MCF7) was 28.9 nM, the IC50 (JIMT1) was 0.13 nM and the “ka (association or affinity rate constant)” value (hErbB2) was 3.91 ± 0.3 × 10^5 M^−1s^−1. For the same compound, the “kd (dissociation rate constant)” value (hErbB2) was 2.56 ± 0.1 × 10^−5 s^−1, the “regressions, FIG. 4A” value (JIMT-1 cells; 2.0 mg/kg single IV dose) was 100% and the “tumor free survival, FIG. 4A” value (JIMT-1 cells; 2.0 mg/kg single IV dose) was 100%. The “tumor volume response (in words), FIG. 4A” value (JIMT-1 cells; single IV dose day 1, Example 14 at 2, 0.67 and 0.3 mg/kg, trastuzumab 20 mg/kg, Kadcyla 20 mg/kg) was “reduction of tumor volume”.

Work on “Trastuzumab-((EG2-MI (2%)-(10 kDa PHF-BA (28%)-(AF-HPA-Ala (9%) [Example 15]” yielded an IC50 (BT474) of 0.05 nM, an IC50 (SKBR3) of 0.01 nM and an IC50 (N87) of 0.11 nM. The IC50 (MCF7) was 23.5 nM, the IC50 (JIMT1) was 0.12 nM and the “complete regression out of 10 animals, FIG. 5” value (NCI-N87 cells; 1 mg/kg single IV dose) was 1. The “partial regressions out of 10 animals, FIG. 5” value (NCI-N87 cells; 1 mg/kg single IV dose) was 7, the “complete responses, FIG. 5” value (NCI-N87 cells; 3 mg/kg single IV dose) was 100 and the “tumor response (in words), FIG. 5” value (NCI-N87 cells; 3 mg/kg single IV dose) was “complete regression of tumor volume”.
